Structures are written as SMILES. Where two headings read alike, the source gives them in different places.

For one assay, the system named is DU145. In words: MTT assay, antiproliferative effect on DU145. Type of assay: cell-based. To be noted: Homo sapiens. The procedure:
(§1) Human CRC (HCT116 and HT-29) and PCa (DU145 and PC3) cell lines were purchased from the American Type Culture Collection (ATCC—LGC Standards, Molsheim, France). All cells were grown in RPMI 1640 medium supplemented with 10% FBS, 1% L-glutamine, 100 U/mL penicillin, and 100 μg/mL streptomycin. Cultures were maintained in a humidified atmosphere containing 5% CO2 at 37 °C. Cells were seeded in 75 cm^2 culture flasks at 1.2 × 10^4 cells/cm^2 for HCT116, DU145, and PC3 cells, and 2.0 × 10^4 for HT-29 cells. Cells were grown for 24 h in culture medium prior to exposure or not to obtain the synthesized compounds. Stock solutions (10^−2 M in DMSO) of each compound were diluted in culture medium to obtain appropriate final concentrations.
(§2) • (a) MTT assay: The antiproliferative effect of all compounds was determined using MTT assay (a metabolic activity test). Briefly, cells were seeded in 96-well culture plates at 4 × 10^3 cells/well for HCT116, PC3, and DU145 cells and 6 × 10^3 cells/well for HT-29 cells (100 µL/well), and grown for 24 h in culture medium prior to exposure or not to obtain compounds 1–15 with concentrations ranging from 5 nM to 50 μM. After 24 and 48 h of treatment, MTT (5 mg/mL in PBS) was added and incubated for another 3 h. MTT was then removed from the wells before adding 100 μL/well of DMSO. The optical density was detected with a microplate reader (Multiskan FC, Thermoscientific, Bordeaux, France) at 550 nm and cell viability was expressed as a percentage of each treatment condition compared to control cells. IC50 values were calculated for all compounds from the dose–response curve. Data are expressed as the arithmetic means ± standard error of the mean (SEM) of separate experiments. All experiments were performed at least in triplicate. • (b) Trypan blue dye exclusion method: Cells were grown for 24 h then treated with compounds 10 and 13 at indicated concentrations. After 48 h of treatment, cells were trypsinized and resuspended in complete medium. Each sample was mixed with Trypan blue solution (0.14% in HBSS, Invitrogen-GIBCO, ThermoFisher, Illkirch, France). Colored (non-viable) and dye-excluding (viable) cells were counted with the LUNA-II automated cell Counter (Logos Biosystems; MC2, Aubière, France). The control was normalized to 100% including viable and dead cells. The results indicated on the histograms were expressed as the percentage of cells compared to the control. IC50 values were determined from the percentages of viable cells compared to the control.
Background: Formazan colour is commonly taken as a measure of viable cells.

For assay [1], the system named is human PCa (DU145 and PC3) cell lines. Description: MTT assay, summary statements for PCa cells. Type of assay: cell-based. As to conditions: Homo sapiens, DU-145, DU145 and PC3, text summary; read-out: IC50 towards PCa cells. The procedure: as §1, §2
[2] abbreviates: DU-145, 24 h, read-out: IC50 DU145 24 h.
Setting [3] is: DU-145, 48 h, read-out: IC50 DU145 48 h.

In the case of `COc1cc(C(=O)/C=C/c2coc3ccc(C)cc3c2=O)cc(OC)c1OC` [chalcone 13, (E)-6-methyl-3-(3-oxo-3-(3,4,5-trimethoxyphenyl)prop-1-en-1-yl)-4H-chromen-4-one], the IC50 – broadly, the midpoint of a concentration-inhibition curve – in the assay with DU145 (setting [2]) was found to be 3920 ± 240 nM; with DU145 (setting [3]) it was 3310 ± 90 nM.

Consider `COc1cc(C(=O)/C=C/c2c[nH]c3ccccc23)cc(OC)c1OC` [chalcone 10, (E)-3-(1H-indol-3-yl)-1-(3,4,5-trimethoxyphenyl)prop-2-en-1-one], for which the values for the IC50 (in the assay with DU145 (setting [2]); with DU145 (setting [3]); in assay [1]) were 51 ± 6 nM, 20 ± 2 nM and 17 to 31 nM, respectively.
